Results taken from PMC12392461, “Beyond Estrogenicity: A Comparative Assessment of Bisphenol A and Its Alternatives in In Vitro Assays Questions Safety of Replacements” (Environmental Science & Technology, 2025).
Where two headings read alike, the source gives them in different places.

Columns and labels:
[1] = system: Tox21 assays; settings: cited from earlier work
[2] = Abiotic CYP (aCYP) oxidation, remaining parent compound (Cparent-Ratio); settings: for Cparent-Ratio Rep.1 %: Table S9, replicate 1; for Cparent-Ratio Rep.2 %: Table S9, replicate 2; for reduction of C parent after aCYP oxidation: 15 min, 30 °C
Description: (§1) The mixtures were adjusted to a final volume of 100 μL with acetonitrile (ACN). The reaction mix was incubated for 15 min at 30 °C and 1000 rpm on a Bioshake iQ orbital shaker from QInstruments (Jena, Germany). Additionally, a mixture without test compounds was prepared as a control. Subsequently, 10 μL of the reaction mixture was transferred into a conical dosing vial and evaporated under a nitrogen flow.
(§2) For chemical analysis, 10 μL of the reaction mixture was concentrated under vacuum (CentriVap, Labconco, Kansas City, MO, USA), diluted to 1 mg/L in ACN or ethyl acetate. The chemical analysis of the reaction mixtures was performed using liquid chromatography (LC) and gas chromatography (GC) coupled with various detection techniques, preferably Multiple Reaction Monitoring (MRM). Data acquisition and processing were carried out using the software MassHunter. Quantification was based on external calibrations.
(§3) The Cparent-Ratio quantifies the extent of oxidation of the parent compound after the abiotic CYP reaction. It was calculated as the ratio of the parent compound concentration after oxidation (C parent, after oxidation) to its concentration before oxidation (C parent, before oxidation) as shown in eq . […] 8 Cparent‐Ratio=Cparent,after oxidation/Cparent,before oxidation

[3] = system: Tox21 assays
Description: (§4) We also reanalyzed the Tox21 data of Adamovsky et al. with the updated baseline toxicity prediction model (Table S2).

[4] = system: PPARγ; set-up: method as in Crosthwait et al. 2025; Sun et al. 2025; settings: ref Crosthwait et al. 2025; Sun et al. 2025; cited from earlier work
[5] = system: ERα; settings: cited from earlier work
[6] = 15 min
Description: as §1, §2, §3

[7] = system: Tox21 assays; test: Re-evaluated Tox21 data (Adamovsky et al.), REPBPA and SRbaseline; settings: for SRbaseline: Specificity Ratio;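 for all read-outs here: published Tox21 results reanalysed with a revised model predicting baseline toxicity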
Description: as §4

[8] = system: ERα; test: Literature ERα reporter gene assays (comparison); format: cell-based; settings: for EC10, approx.: in M (unit assumed)
Description: S5.4: Comparison with literature data for ERα reporter gene assays
To improve data comparability with our own results we converted reported EC₅₀ to EC₁₀ by dividing by 9, which is the ratio for log-logistic concentration-response curves with a hillslope of 1 (Figure S9a). Additionally, REPBPA values were calculated to enable a more consistent evaluation. Methodological differences between studies must be considered, as Reiniger et al.24 used the YES assay, while Goksøyr et al.25 applied ERα from fish (Figure S9b).
Cyan symbols highlight the ER-UAS-bla GripTite (this study and Tox21GenBLA).
(1 picture or pasted object on this page, not shown here)

[9] = experimental, cited from earlier work
[10] = TOX21_PPARg_BLA_antagonist_ratio, re-evaluated Tox21 data, ref Adamovsky et al 2024
[11] = Table S9, loss of parent after aCYP oxidation
[12] = Table S9, mean of two replicate experiments
[13] = Table S9, replicate 1, as fraction
[14] = Table S9, replicate 2, as fraction
[15] = estrogen receptor from Atlantic cod (Gadus morhua), ref Goksøyr et al 2024
[16] = TOX21_AR_LUC_MDAKB2_Antagonist_0,5nM_R1881, Relative Effect Potency
[17] = TOX21_AR_LUC_MDAKB2_Antagonist_0,5nM_R1881
[18] = TOX21_CAR_Agonist, Relative Effect Potency
[19] = TOX21_CAR_Antagonist, Relative Effect Potency
[20] = TOX21_PPARg_BLA_antagonist_ratio
[21] = Tox21BLA, ref Adamovsky et al. 2024
[22] = Tox21Luc, ref Adamovsky et al. 2024
[23] = Atlantic cod estrogen receptor, approximated from literature EC50, ref Goksøyr et al 2024
[24] = Atlantic cod estrogen receptor, ref Goksøyr et al 2024
[25] = approximated from literature EC50, ref Pelch et al 2019
[26] = approximated from literature EC50, ref Reiniger et Oehlmann 2024
[27] = approximated from literature values, ref Kojima et al 2019
[28] = relative estrogenic potency vs BPA, ref Kojima et al 2019
[29] = relative estrogenic potency vs BPA, ref Pelch et al 2019
[30] = relative estrogenic potency vs BPA, ref Reiniger et Oehlmann 2024
[31] = TOX21_AR_LUC_MDAKB2_Antagonist_0,5nM_R1881, re-evaluated Tox21 data, ref Adamovsky et al 2024
[32] = TOX21_CAR_Agonist, re-evaluated Tox21 data, ref Adamovsky et al 2024
[33] = TOX21_CAR_Antagonist, re-evaluated Tox21 data, ref Adamovsky et al 2024
[34] = Table S11, measured simultaneously with bioassay
[35] = ATG_NRF2_ARE_CIS_up, Relative Effect Potency

## CC(C)(c1cc(Br)c(O)c(Br)c1)c1cc(Br)c(O)c(Br)c1 [TBBPA, 3,3',5,5'-Tetrabromobisphenol A]
[1]; ATG_PPARg_TRANS_up, re-evaluated Tox21 data, ref Adamovsky et al 2024
  EC10: 4.64e-07 M
[1]; ATG_hPPARg_XSP1_up, re-evaluated Tox21 data, ref Adamovsky et al 2024
  EC10: 5.02e-07 M
[1]; ATG_hPPARg_XSP2_up, re-evaluated Tox21 data, ref Adamovsky et al 2024
  EC10: 2e-07 M
[1]; [10]
  EC10: 6.2e-08 M
[2]; [11]
  % Loss: 8%
[3]
  REPBPA: 29.73
  SRbaseline: 90.68
[3]; ATG_PPARg_TRANS_up, Relative Effect Potency
  REPBPA: 3.44
[3]; ATG_PPARg_TRANS_up, Specificity Ratio
  SRbaseline: 12.11
[3]; ATG_hPPARg_XSP1_up, Relative Effect Potency
  REPBPA: 2.58
[3]; ATG_hPPARg_XSP1_up, Specificity Ratio
  SRbaseline: 11.21
[3]; ATG_hPPARg_XSP2_up, Relative Effect Potency
  REPBPA: 6.45
[3]; ATG_hPPARg_XSP2_up, Specificity Ratio
  SRbaseline: 28.04

## CC(C)Oc1ccc(S(=O)(=O)c2ccc(O)cc2)cc1 [D8, 4-((4-Isopropoxyphenyl)sulfonyl)phenol]
[4]
  PPARγ transactivation reported in the literature: weaker effects
[5]; ref Pelch et al 2019
  Efficacy %: 10.30%
[2]; [11]
  % Loss: -13%
[2]; [12]
  Cparent-Ratio Mean: 1.13
[2]
  Cparent-Ratio Rep.1 %: 114.96%
  Cparent-Ratio Rep.2 %: 110.37%
[2]; [13]
  Cparent-Ratio Rep.1: 1.15
[2]; [14]
  Cparent-Ratio Rep.2: 1.10

## Oc1ccc(C(c2ccc(O)cc2)(C(F)(F)F)C(F)(F)F)cc1 [BPAF, 4,4'-(1,1,1,3,3,3-Hexafluoropropane-2,2-diyl)diphenol]
[4]
  PPARγ transactivation reported in the literature: No agonism was detected
[6]
  % Loss: -9%
[5]; [15]
  EC50: 230 nM
[5]; ref Kojima et al 2019
  EC50: 390 nM
[5]; ref Pelch et al 2019
  EC50: 130 nM
  Efficacy %: 91.50%
[5]; ref Reiniger et Oehlmann 2024
  EC50: 434 nM
  Efficacy %: 8.21E+01%
[5]; ref Text S5.4, Tables S2 and S7
  REPBPA,ERα reported in the literature: 3–5
[7]; [16]
  REPBPA: 0.83
[7]; [17]
  SRbaseline: 22.15
[7]; [18]
  REPBPA: 0.26
[7]; TOX21_CAR_Agonist
  SRbaseline: 12.10
[7]; [19]
  REPBPA: 1.29
[7]; TOX21_CAR_Antagonist
  SRbaseline: 153.1
[7]; [20]
  SRbaseline: 11.28
[7]; [21]
  REPBPA: 2.86E+00
[7]; [22]
  REPBPA: 1.23E+00
[8]; [23]
  EC10, approx.: ~2.56E-08
[8]; [24]
  REPBPA: 8.26E+00
[8]; [25]
  EC10, approx.: ~1.44E-08
[8]; [26]
  EC10, approx.: ~4.82E-08
[8]; [27]
  EC10, approx.: ~4.30E-08
[8]; [28]
  REPBPA: 8.49E-01
[8]; [29]
  REPBPA: 9.23E+00
[8]; [30]
  REPBPA: 5.21E+00
[1]; [31]
  EC10: 2.92e-06 M
[1]; [32]
  EC10: 5.35e-06 M
[1]; [33]
  EC10: 4.23e-07 M
[1]; [10]
  EC10: 5.75e-06 M
[1]; [21]
  EC10: 2.07E-07
[1]; [22]
  EC10: 1.10E-08

## O=S(=O)(c1ccc(O)cc1)c1ccc(OCc2ccccc2)cc1 [BPS-MPE, 4-[4-(benzyloxy)benzenesulfonyl]phenol]
[4]
  PPARγ transactivation reported in the literature: significant PPARγ activation
[5]; ref Pelch et al 2019
  Efficacy %: 9.40%
[2]; [11]
  % Loss: 0.295%
[2]; [12]
  Cparent-Ratio Mean: 1.00
[2]
  Cparent-Ratio Rep.1 %: 118.51%
  Cparent-Ratio Rep.2 %: 80.90%
[2]; [13]
  Cparent-Ratio Rep.1: 1.19
[2]; [14]
  Cparent-Ratio Rep.2: 0.81

## Cc1ccc(S(=O)(=O)NC(=O)Nc2ccc(Cc3ccc(NC(=O)NS(=O)(=O)c4ccc(C)cc4)cc3)cc2)cc1 [BTUM, 4,4'-Bis(p-tolylsulfonylureido)diphenylmethane]
[4]
  PPARγ transactivation reported in the literature: weaker effects
[2]
  reduction of C parent after aCYP oxidation: 70%
  Cparent-Ratio Rep.1 %: 26.78%
  Cparent-Ratio Rep.2 %: 33.79%
[2]; [11]
  % Loss: 70%
[2]; [12]
  Cparent-Ratio Mean: 0.30
[2]; [13]
  Cparent-Ratio Rep.1: 0.27
[2]; [14]
  Cparent-Ratio Rep.2: 0.34
[2]; Table S11
  % Loss: 79%
[2]; [34]
  Cparent-Ratio Mean: 0.21
  Cparent-Ratio Rep.1: 0.23
  Cparent-Ratio Rep.2: 0.18

## C=CCOc1ccc(S(=O)(=O)c2ccc(O)cc2)cc1 [BPS-MAE, 4-[[4-(Allyloxy)phenyl]sulfonyl]phenol]
[4]
  PPARγ transactivation reported in the literature: weaker effects
[5]; ref Pelch et al 2019
  Efficacy %: 10.30%
[2]; [11]
  % Loss: 1.47%

## O=S(=O)(c1ccc(O)cc1)c1ccccc1O [2,4-BPS, 2,4'-Dihydroxydiphenyl sulfone]
[4]
  PPARγ transactivation reported in the literature: No agonism was detected

## Oc1ccc(Sc2ccc(O)cc2)cc1 [BPT, 4,4'-Thiodiphenol]
[9]; ref Hansch, 1995
  predicted or literature experimental log Kow: 3.34
[7]; [16]
  REPBPA: 1.69
[7]; [17]
  SRbaseline: 66.82
[7]; [20]
  SRbaseline: 35.93
[7]; [22]
  REPBPA: 8.32E-01
[1]; [31]
  EC10: 1.43e-06 M
[1]; [10]
  EC10: 2.66e-06 M
[1]; [22]
  EC10: 7.19E-08
[2]; [11]
  % Loss: 71%
[2]; Table S11
  % Loss: 87%

## Cc1ccc(S(=O)(=O)NC(=O)Nc2cccc(OS(=O)(=O)c3ccc(C)cc3)c2)cc1 [Pergafast, N-(p-toluenesulfonyl)-N'-(3-(p-toluenesulfonyloxy)phenyl)urea]
[4]
  PPARγ transactivation reported in the literature: weaker effects
[2]
  reduction of C parent after aCYP oxidation: 44%
  Cparent-Ratio Rep.1 %: 66.98%
  Cparent-Ratio Rep.2 %: 45.82%
[2]; [11]
  % Loss: 44%
[2]; [12]
  Cparent-Ratio Mean: 0.56
[2]; [13]
  Cparent-Ratio Rep.1: 0.67
[2]; [14]
  Cparent-Ratio Rep.2: 0.46
[2]; Table S11
  % Loss: 32%
[2]; [34]
  Cparent-Ratio Mean: 0.68
  Cparent-Ratio Rep.1: 0.75
  Cparent-Ratio Rep.2: 0.61

## O=C(OCc1ccccc1)c1ccc(O)cc1 [BzPB, Benzyl 4-hydroxybenzoate]
[9]; ref Lehner 1993
  predicted or literature experimental log Kow: 3.56
[5]; ref Pelch et al 2019
  Efficacy %: 19.70%
[2]; [11]
  % Loss: -22%
[2]; [12]
  Cparent-Ratio Mean: 1.22
[2]
  Cparent-Ratio Rep.1 %: 115.59%
  Cparent-Ratio Rep.2 %: 128.10%
[2]; [13]
  Cparent-Ratio Rep.1: 1.16
[2]; [14]
  Cparent-Ratio Rep.2: 1.28

## CCC(C)(c1ccc(O)cc1)c1ccc(O)cc1 [BPB, 4,4'-(Butane-2,2-diyl)diphenol]
[4]
  PPARγ transactivation reported in the literature: No agonism was detected
[6]
  % Loss: 12%
  Cparent-Ratio Mean: 0.88
  Cparent-Ratio Rep.1: 0.80
  Cparent-Ratio Rep.1 %: 79.66%
  Cparent-Ratio Rep.2: 0.96
  Cparent-Ratio Rep.2 %: 96.18%
[5]; [15]
  EC50: 1600 nM
[5]; ref Kojima et al 2019
  EC50: 74 nM
[5]; ref Pelch et al 2019
  EC50: 320 nM
  Efficacy %: 115.70%
[5]; ref Reiniger et Oehlmann 2024
  EC50: 1680 nM
  Efficacy %: 9.23E+01%
[7]; [35]
  REPBPA: 17.53
[7]; ATG_NRF2_ARE_CIS_up
  SRbaseline: 112.9
[7]; [16]
  REPBPA: 0.94
[7]; [17]
  SRbaseline: 18.87
[7]; [18]
  REPBPA: 1.20
[7]; TOX21_CAR_Agonist
  SRbaseline: 42.52
[7]; [19]
  REPBPA: 7.88
[7]; TOX21_CAR_Antagonist
  SRbaseline: 704.7
[7]; [21]
  REPBPA: 3.63E+00
[7]; [22]
  REPBPA: 1.63E+00
[8]; [23]
  EC10, approx.: ~1.78E-07
[8]; [24]
  REPBPA: 1.19E+00
[8]; [25]
  EC10, approx.: ~3.56E-08
[8]; [26]
  EC10, approx.: ~1.87E-07
[8]; [27]
  EC10, approx.: ~1.15E-08
[8]; [28]
  REPBPA: 3.17E+00
[8]; [29]
  REPBPA: 3.75E+00
[8]; [30]
  REPBPA: 1.35E+00
[1]; ATG_NRF2_ARE_CIS_up, re-evaluated Tox21 data, ref Adamovsky et al 2024
  EC10: 4.31e-07 M
[1]; [31]
  EC10: 2.58e-06 M
[1]; [32]
  EC10: 1.15e-06 M
[1]; [33]
  EC10: 6.91e-08 M
[1]; [21]
  EC10: 1.63E-07
[1]; [22]
  EC10: 2.15E-08

## CC(c1ccccc1)(c1ccc(O)cc1)c1ccc(O)cc1 [BPAP, 4,4'-(1-Phenylethylidene)bisphenol]
[6]
  reduction of C parent after aCYP oxidation: 25%
[5]; ref Kojima et al 2019
  EC50: 1900 nM
[5]; ref Pelch et al 2019
  Efficacy %: 45.40%
[5]; ref Reiniger et Oehlmann 2024
  EC50: 932 nM
  Efficacy %: 1.06E+02%
[7]; [35]
  REPBPA: 3.88
[7]; ATG_NRF2_ARE_CIS_up
  SRbaseline: 15.59
[7]; TOX21_CAR_Antagonist
  SRbaseline: 27.45
[8]; [26]
  EC10, approx.: ~1.04E-07
[8]; [27]
  EC10, approx.: ~1.45E-07
[8]; [28]
  REPBPA: 2.52E-01
[1]; [33]
  EC10: 1.11e-06 M
